Results on 1 cell line are retold here after the supplement of paper PMC10307832.

What all share (experiment): relative viability (nuclei count vs DMSO), 5 days (fraction); higher = more cells survive
Compound in the experiment “YM155 + OSI-027”: COCC[n+]1c2c(n(Cc3cnccn3)c1C)C(=O)c1ccccc1C2=O [YM155] + COc1cccc2cc(-c3nc([C@H]4CC[C@H](C(=O)O)CC4)n4ncnc(N)c34)[nH]c12 [OSI-027] (partner 0.5 µM)
In short, it runs like this: (§1)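 Lung cancer cell lines in 1536-well plates were dosed by pin tool the day after seeding, either with one drug alone or with a fixed anchor-drug dose plus five library-drug doses (not always all listed) in √10 steps. After 5 days, cells were fixed and their nuclei stained in one step (final 0.05% Triton X-100, 1% formaldehyde, 1 ug/ml Hoechst), then counted on 4× images. Relative viability is the nuclei count in treated wells divided by that in vehicle wells. Values are medians of duplicate plates.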

Compound in the experiment “Quizartinib + Trametinib”: CC(C)(C)c1cc(NC(=O)Nc2ccc(-c3cn4c(n3)sc3cc(OCCN5CCOCC5)ccc34)cc2)no1 [Quizartinib] + CC(=O)Nc1cccc(-n2c(=O)n(C3CC3)c(=O)c3c(Nc4ccc(I)cc4F)n(C)c(=O)c(C)c32)c1 [Trametinib] (partner 0.02 µM)
In short, it runs like this: as §1

Compound in the experiment “Quizartinib + Pemetrexed”: CC(C)(C)c1cc(NC(=O)Nc2ccc(-c3cn4c(n3)sc3cc(OCCN5CCOCC5)ccc34)cc2)no1 [Quizartinib] + Nc1nc2[nH]cc(CCc3ccc(C(=O)N[C@@H](CCC(=O)O)C(=O)O)cc3)c2c(=O)[nH]1 [Pemetrexed] (partner 0.2 µM)
The method in brief:
as §1

Compound in the experiment “YM155 + Vorinostat”: COCC[n+]1c2c(n(Cc3cnccn3)c1C)C(=O)c1ccccc1C2=O [YM155] + O=C(CCCCCCC(=O)Nc1ccccc1)NO [Vorinostat] (partner 1 µM)
In short, it runs like this: as §1

Compound in the experiment “Quizartinib + Tozasertib”: CC(C)(C)c1cc(NC(=O)Nc2ccc(-c3cn4c(n3)sc3cc(OCCN5CCOCC5)ccc34)cc2)no1 [Quizartinib] + Cc1cc(Nc2cc(N3CCN(C)CC3)nc(Sc3ccc(NC(=O)C4CC4)cc3)n2)n[nH]1 [Tozasertib] (partner 0.1 µM)
In short, it runs like this: as §1

Compound in the experiment “Quizartinib + Decitabine”: CC(C)(C)c1cc(NC(=O)Nc2ccc(-c3cn4c(n3)sc3cc(OCCN5CCOCC5)ccc34)cc2)no1 [Quizartinib] + Nc1ncn([C@H]2C[C@H](O)[C@@H](CO)O2)c(=O)n1 [Decitabine] (partner 2 µM)
In short, it runs like this:
as §1

On to NCI-H1648, for which the relative viability with YM155 + OSI-027 (first compound 0.002 µM) stood at 0.283; with YM155 + OSI-027 (first compound 0.006325 µM), 0.271; in the experiment with YM155 + OSI-027 (first compound 0.02 µM), 0.259; with YM155 + OSI-027 (first compound 0.06325 µM), 0.231; with Quizartinib + Trametinib (first compound 0.003162 µM), 0.401; in the experiment with Quizartinib + Trametinib (first compound 0.03162 µM) it was 0.581. The relative viability is 0.486 with Quizartinib + Trametinib (first compound 0.1 µM); 0.617 with Quizartinib + Pemetrexed (first compound 0.003162 µM); 0.552 with Quizartinib + Pemetrexed (first compound 0.03162 µM); 1.05 with Quizartinib + Pemetrexed (first compound 0.1 µM); 0.386 with YM155 + Vorinostat (first compound 0.006325 µM); 0.565 with YM155 + Vorinostat (first compound 0.02 µM). The relative viability with YM155 + Vorinostat (first compound 0.06325 µM) is 0.301; with Quizartinib + Tozasertib (first compound 0.01 µM), 0.38; with Quizartinib + Tozasertib (first compound 0.03162 µM), 0.341; with Quizartinib + Tozasertib (first compound 0.1 µM), 0.585; with Quizartinib + Decitabine (first compound 0.003162 µM), 0.461; with Quizartinib + Decitabine (first compound 0.03162 µM) it was 0.548. Besides, the relative viability with Quizartinib + Decitabine (first compound 0.1 µM) amounted to 0.745.
